Series [1] concerns L55 tumors. Kind of series: L55 Humanized Tumor Model with hPBMC challenge. The settings on record: for tolerability (body weight): with or without hPBMCs, over the course of the study. In kind it is in vivo. The source says:
Grow the human NSCLC cell line, L55, in RPMI 1640 medium supplemented with 10% fetal bovine serum. Harvest sub-confluent cells with trypsin and rinse twice with growth medium lacking serum. Initiate the growth of subcutaneous tumors by injecting 5×10^6 in a 1:1 mixture of HBSS and MATRIGEL® (BD Biosciences, Franklin Lakes, N.J.) in the rear flank of NOD.Cg-Prkdc^scidIl2rg^tm1Wjl/SzJ mice more commonly known as NOD scid gamma chain knockout mice (NSG) mice (The Jackson Laboratory, Bar Harbour, Me.), which lack T cells, B cells, NK cells, and are deficient in cytokine signaling. When the mean tumor volume reaches approximately 200-300 mm^3, randomize the animals by tumor size and body weight and place into their respective treatment groups as indicated. After randomization, challenge tumor-bearing mice with PBS alone (no PBMCs) or with PBS containing 1×10^7 human PBMCs into the tail vein of recipients.
(§1) Capture tumor size and body weight using Study Director. Estimate tumor volume (V) by using the formula: V=0.536×L×W^2 where L=larger measured diameter and W=smaller of the perpendicular diameter. Transform the tumor volume data to a log scale to equalize variance across time and treatment groups. Analyze the log volume data with a two-way repeated measures analysis of variance by time and treatment using the MIXED procedures in SAS software (Version 9.2). The correlation model for the repeated measures is Spatial Power. Compare treated groups to the control group at each time point. Use the MIXED procedure also separately for each treatment group to calculate adjusted means and standard errors at each time point. Both analyses account for the autocorrelation within each animal and for the loss of data that occurs when animals with large tumors are removed from the study early. Calculate relative changes in tumor volume (% T/C) using the tumor volume measurements taken nearest to the last day of dosing with Example 1A, using the formula % T/C=100×ΔT/ΔC, where T=mean tumor volume of the compound treated group, ΔT=mean tumor volume of the compound treated group minus the mean tumor volume on the baseline day, C=mean tumor volume of the control (vehicle) group, and ΔC=mean tumor volume of the control group minus the mean tumor volume on the baseline day. If ΔT<0, then a tumor regression value is calculated instead of % T/C whereby % Regression=100×ΔT/Tinitial such that Tinital=mean tumor volume on the baseline day.
(§2) Assess antitumor efficacy of Example 1A and LY3300054 alone, or in combination by measuring tumor volume by three dimensional caliper measurements twice a week during the course of the study. Measure body weight twice weekly during the course of the study, as a general indicator of tolerability.
(§3) Formulations for Example 1A and LY3300054: Formulate Example 1A on a weekly basis in 1% HEC/0.25% Tween 80/0.05% Antifoam and store at 4° C. Solublize LY3300054 in phosphate buffered saline and store at 4° C.
The L55 NCLC human cancer cell line is intrinsically resistant to the allo-response associated with the injection of hPBMCs. The goal of these studies is to assess the ability of compounds to potentiate the allo response allowing human T cells to target and restrict the growth of a human L55 tumors in a mouse that lacks an adaptive immune system (NSG mice). […]

For series [2], the system named is SKOV3 cells. As to the kind of experiment: Cell viability in SKOV3 cells (CELLTITER-GLO). The format is cell-based. How it is done: The purpose of this assay is to evaluate the inhibition of the production of kynurenine, N-formyl-kynurenine and the depletion of tryptophan in IDO1 expressing cancer cells and assess whether compounds are overtly toxic to these cells. Exemplary compounds are tested for the inhibition of IDO1 activity in SKOV3 (ATCC, Cat # HTB-77), an ovarian cancer cell line that intrinsically expresses IDO1. Due to IDO1 expression, SKOV3 cells degrade tryptophan with the concomitant production of kynurenine and compounds are tested for their ability to inhibit the production of kynurenine, N-formyl-kynurenine and the depletion of tryptophan. Optionally, overt toxicity of compounds can be assessed by monitoring cell viability.
Plate SKOV3 cells, an IDO1-expressing ovarian cancer cell line, at 20,000 cells per well in 100 μL of McCoys 5A media (Gibco, Cat #16600-082) supplemented with non-essential amino acids (Gibco, Cat #11140-050), 1 mM sodium pyruvate (Gibco, Cat #11360-070), and 10% fetal bovine serum, complete media, in a 96 well tissue culture plate (BD Biosciences). Then, incubate cells for 16 hours in a 37° C. incubator with 5% CO2. […] Optionally, return original plate(s) to the incubator for an additional 24 hours and measure the viability of cells by adding an equal volume of CELLTITER-GLO® (Promega) and measure luminescence in an PERKIN ELMER® EnVision plate reader.

For series [3], the target named is T1, IDO1 (Homo sapiens, UniProt P14902).
T1 construct: an ovarian cancer cell line that intrinsically expresses IDO1; endogenous in cells; host or cells: SKOV3 (ATCC HTB-77) in culture; SKOV3X (Indiana University Research and Technology Center) as intraperitoneal tumors in athymic nude mice
T1 sequence (P14902 whole entry): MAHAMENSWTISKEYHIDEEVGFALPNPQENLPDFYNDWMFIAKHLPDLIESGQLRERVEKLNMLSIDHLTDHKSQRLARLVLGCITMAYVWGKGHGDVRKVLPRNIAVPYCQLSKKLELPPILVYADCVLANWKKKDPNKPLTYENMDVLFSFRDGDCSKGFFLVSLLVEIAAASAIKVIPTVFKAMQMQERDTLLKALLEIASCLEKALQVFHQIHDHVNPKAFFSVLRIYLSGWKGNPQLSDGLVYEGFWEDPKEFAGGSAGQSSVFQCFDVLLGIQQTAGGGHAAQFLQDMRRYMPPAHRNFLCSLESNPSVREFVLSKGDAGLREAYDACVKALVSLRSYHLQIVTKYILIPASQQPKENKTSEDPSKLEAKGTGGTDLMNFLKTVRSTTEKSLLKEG
As to the kind of experiment: In Vivo Target Inhibition Assay (SKOV3X tumors). As to conditions: mouse, 12 hours after dosing, SKOV3X tumor-bearing mice, read-out: inhibition of kynurenine in tumor. An excerpt:
The purpose of this assay is to evaluate the inhibition of kynurenine production and tryptophan depletion in cancer cells in vivo. SKOV3X (Indiana University Research and Technology Center), an ovarian cancer cell line, intrinsically expresses IDO1 and readily forms tumors in the peritoneal cavity of Athymic Nude-Foxn1^nu mice (Harlan). As a consequence of IDO1 expression, SKOV3X tumors locally deplete tryptophan with the concomitant production of high levels of kynurenine in the tumor microenvironment. The purpose of this assay is to measure the ability of test compounds to inhibit IDO1 evidenced by the clear reduction in kynurenine levels in the tumor.
Culture SKOV3X in McCoys 5A media (Gibco, Cat #16600-082) supplemented with non-essential amino acids (Gibco, Cat #11140-050), 1 mM sodium pyruvate (Gibco, Cat #1360-070) and 10% FBS and incubate at 37° C. in 5% CO2. Trypsinize and isolate cells from culture and resuspend cells in Hank's balanced salt solution (HBSS). Implant 2×10^6 SKOV3X cells into the intraperitoneal cavity of each Athymic Nude-Foxn1^nu mouse (Harlan). Approximately three weeks post-implantation, palpate animals to ensure tumor formation and randomize tumor-bearing mice into vehicle control and compound treatment groups. Administer compound formulated in vehicle containing 1% hydroxyethylcellulose (HEC) and 0.025% TWEEN® 80 and 0.05% Antifoam or vehicle alone by oral gavage. Generate time-course inhibition profile by dosing tumor-bearing animals with a single dose and collect plasma, liver, and tumor samples at 2, 4, 8, 12, and 24 hours post dose. Collect blood into EDTA-containing blood collection tubes (Greiner bio-one, Cat #450474) and centrifuge at 2365×g, isolate plasma, and freeze at −80° C. Isolate liver and tumor fragments, record weights and flash freeze and store at −80° C.
Prepare calibration standards for L-kynurenine and L-tryptophan by first generating stripped matrices, which are plasma and tissue homogenates depleted of L-kynurenine and L-tryptophan by dialysis. […]

Series [4] concerns Colon26 tumors. As to the kind of experiment: Mouse Syngeneic Colon26 Model. In kind it is in vivo. As to conditions: for changes in tumor volume (% T/C) / reduction in body weight compared to baseline: day 20. How it is done: Grow the mouse BALB/c-derived Colon26 colon cancer cell line in RPMI 1640 medium supplemented with 10 mM HEPES, […] sodium pyruvate, and 10% fetal bovine serum. Harvest sub-confluent cells with trypsin and rinse twice with complete growth medium lacking serum. Initiate subcutaneous tumors by injecting 1×10^6 cells resuspended in HBSS in the rear flank of immune-competent BALB/c mice (Envigo, Indianapolis, Ind.). Six days after tumor implantation, randomize animals based on body weight and place into their respective treatment groups using the number of animals per group as indicated.
as §1, §2, §3
Treat female BALB/c mice (n=10) bearing Colon26 tumors with Example 1A twice daily for 21 days by oral gavage at doses of 10, 50, and 100 mg/kg. Start administration of Example 1A six days after tumor implantation, and monitor tumor growth and body weight twice a week for the duration of the treatment period.

[5] abbreviates: 10 mg/kg twice daily oral gavage.
Setting [6] is: 50 mg/kg twice daily oral gavage.
Setting [7] is: 100 mg/kg twice daily oral gavage.

Where only a bound is given, the exact number is not on record here.

What is called inhibition is the relative decrease from the control value, in per cent.

For “LY3300054: an antibody that binds human PD-L1, light and heavy chains defined by SEQ ID NOs”, the “change in tumor volume (% T/C)” value in series [1] (10 mg/kg intraperitoneal once a week for 4 weeks, hPBMCs, day 37, vs vehicle alone lacking PBMCs) stood at 75.7%. For the same compound, in series [1] (LY3300054 10 mg/kg once a week), the “tolerability (body weight)” value is listed as “No significant tolerability issues”.
As for `C[C@@H](NC(=O)c1ccc(F)cc1)c1ccc2c(c1)CCN2C(=O)C1CCOCC1` (single isomer, unassigned) [Example 1A], in series [2], the “concentration up to which cell proliferation is not inhibited” value is no less than 10 µM. The inhibition at 5 mg/kg in series [3] (5 mg/kg single oral dose) came out at 37%. Further, the inhibition at 25 mg/kg in series [3] (25 mg/kg single oral dose) came to 59%. The inhibition at 75 mg/kg in series [3] (75 mg/kg single oral dose) is 79%. In addition, in series [1] (75 mg/kg twice daily oral for 21 days, presence of hPBMCs, day 41, vs vehicle control lacking hPBMCs), the “% T/C” value came to 47.6%. The tumor growth inhibition entry in series [1] (75 mg/kg twice daily oral, absence of hPBMCs, compared to vehicle alone without PBMCs) is recorded as “did not result in significant tumor growth inhibition”. Moreover, the “tolerability (body weight)” value in series [1] (Example 1A 75 mg/kg twice daily) is “No significant tolerability issues”. In addition, the “changes in tumor volume (% T/C)” value was determined as 17.5% in series [4] (setting [5]), 31.2% in series [4] (setting [6]) and 62.6% in series [4] (setting [7]). The “reduction in body weight compared to baseline” value came out at 2.5% in series [4] (setting [5]), 8% in series [4] (setting [6]) and 2.5% in series [4] (setting [7]). Further, the “tolerability (body weight changes)” value in series [4] (10, 50 and 100 mg/kg twice daily for 21 days, compared to vehicle-treated mice) is given as “no significant tolerability issues”.

These data come from patent US10759786B2, “1-tetrahydropyranylcarbonyl-2,3-dihydro-1H-indole compounds for treating cancer” (Eli Lilly and Company, priority 2016, dated 2020).
